Experimental findings from US20040198756A1, “Medicaments” (priority 2001, published 2004) are described below.

SMILES strings stand for the structures. Structures can show the parent of a compound that is named as a salt. Bounds are passed on as bounds.

For the experiment, the system named is S. aureus WCUH29, S. pneumoniae 1629, H. influenzae ATCC 51907, M. catarrhalis Ravisio. The experiment can be described thus: MIC of further test compounds against an alternative selection of organisms. To be noted: read-out: MIC values versus some of these organisms. The class given is cell-based. The method, then:
The MIC (μg/ml) of further test compounds against an alternative selection of organisms was determined:
S. aureus WCUH29, S. pneumoniae 1629, H. influenzae ATCC 51907, M. catarrhalis Ravisio.

Regarding `COc1ccc2nccc(NC(=O)C3(C(F)(F)F)CCN(CCc4cc5c(nn4)SCC(=O)N5)CC3)c2n1` [Example 24, 1-[2-(6-Oxo-6,7-dihydro-5H-8-thia-1,2,5-triazanaphthalen-3-yl)ethyl]-4-trifluoromethylpiperidine-4-carboxylic acid (6-methoxy-[1,5]naphthyridin-4-yl) amide dihydrochloride], the MIC is at most 16 µg/mL.
